Source: article PMC12006171, “Marsupial cathelicidins: characterization, antimicrobial activity and evolution in this unique mammalian lineage” (Frontiers in Immunology, 2025)
≈ marks a conversion by molar mass, not a printed value. Like-named read-outs stand apart in the source and are kept apart here. Where a SMILES comes first, the peptide text is derived from it.

Legend:
Type in all cases: cell-based
[1] = system: Staphylococcus aureus clinical isolate – animal, methicillin-resistant (MRSA); conditions: clinical isolate – animal, methicillin-resistant
Method in brief: (§1)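 MIC defined as lowest peptide level preventing visible growth after 20–24 h at 35°C. Candida tested in RPMI-1640 MOPS; bacteria in Mueller Hinton broth, optionally with 10% lysed horse blood and/or divalent cations. Final peptide range 64-0.125 μg/mL, starting inoculum 5 x 10^5 CFU/mL, per CLSI M07-A/M26A.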

[2] = system: Staphylococcus aureus clinical isolate – animal, penicillin-resistant (PRSA); conditions: clinical isolate – animal, penicillin-resistant (PRSA)
Method in brief: as §1

[3] = system: six bacteria (S. aureus, E. coli, P. aeruginosa; ATCC and clinical isolate); conditions: for Antibacterial (MIC <64ug/mL): synthesized mature peptide
Method: (§2) Antimicrobial testing of 78 cathelicidin MPs was performed in two phases as outlined in Figure 1 . In phase I, 40 peptides (27 extant and 13 ancestral) were selected for testing based on rank (outlined above) and similarity to published marsupial cathelicidins with known antimicrobial activity ([33], [41]–[43]). These peptides were tested against nine bacteria (Staphylococcus aureus ATCC 29213 and clinical isolate, Escherichia coli ATCC 25922 and clinical isolate, Pseudomonas aeruginosa ATCC 27853 and clinical isolate, Streptococcus agalactiae ATCC 12386 and clinical isolate, Streptococcus pneumoniae ATCC 49619) and three fungi (Candida krusei ATCC 6258, Candida parapsilosis ATCC 22019, and Candida albicans clinical isolate). Details regarding these strains are available in Supplementary Table 4 . The antimicrobial activity of cathelicidins was determined as the minimum inhibitory concentration (MIC), which was the lowest concentration of cathelicidin that prevented visible bacterial or fungal growth, relative to the negative control. […] Minimum bactericidal concentration (MBC) and/or minimum fungicidal concentration (MFC) was conducted to determine microbicidal versus static action. Activity against S. aureus ATCC, E. coli ATCC, and Pseudomonas aeruginosa ATCC 27853 was examined in the presence of divalent cations to determine the impact of inhibitors.
In phase II, the remaining 38 peptides (37 extant and one ancestral) were tested against six bacteria (S. aureus ATCC and clinical isolate, E. coli ATCC and clinical isolate, and P. aeruginosa ATCC and clinical isolate). […] No further testing on phase II peptides was performed. Detailed methods for all assays are provided in subsequent sections.
(§3) Antimicrobial activity was determined using a broth microdilution susceptibility assay in 96 well polypropylene plates according to Clinical Laboratory Standards Institute guidelines M07-A and M26A as described previously ([33], [42], [43]). The bacterial and fungal isolates from humans and animals used in this study are outlined in Supplementary Table 4 . Only yeasts were included in the panel of fungi as they have been used in the susceptibility testing of eutherian ([3], [81]–[83]) and other marsupial cathelicidins previously ([33], [42], [43]). Cathelicidin mature peptides were solubilized in DMSO and serially diluted in duplicate from 128-0.25μg/mL in a final volume of 100µL. For bacteria, cathelicidins were diluted in Mueller Hinton Broth (MHB) with or without 10% lysed horse blood, and with (MH II B) or without (MHB) calcium and magnesium cations. For fungi, cathelicidins were diluted in Roswell Park Memorial Institute medium (RPMI)-1640 MOPS. Ampicillin or tetracycline were included as a positive control for Gram-positive and -negative bacteria respectively, while amphotericin B was used for fungi. A media-only negative control and growth control (no cathelicidin) were also included on each plate. Bacteria were sub-cultured on Muller Hinton agar (MHA) or sheep blood agar (BA), and fungi on Sabouraud dextrose agar (SAB), 20–24 hours prior to the test. Colonies were suspended in saline, the concentration adjusted to a 0.5 McFarland standard, and then diluted in media to a concentration of 1.0 x 10^6 cells/mL. Then, 100μL was added to each well of the cathelicidin dilution plate, giving a final inoculum density of 5 x 10^5 CFU/mL and cathelicidin concentration of 64-0.125μg/mL. Colony counts were performed on MHA/BA/SAB to confirm inoculum density. All plates were incubated at 35°C for 20–24 hours, depending on the strain.
(§4) Colonies were counted and compared to the colony count of the starting inoculum.

[4] = system: Pseudomonas aeruginosa clinical isolate - animal; assay: microbe, parasite or virus in culture; conditions: clinical isolate - animal
Method in brief: (§5)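 Bacteria at a final 5 x 10^5 CFU/mL were incubated 20–24 h at 35 °C with DMSO-solubilized peptides serially diluted to 64–0.125 μg/mL in Mueller Hinton broth (± lysed horse blood, ± divalent cations). MIC read as no visible growth; bactericidal action from colony counts compared with the inoculum.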

[5] = system: Escherichia coli clinical isolate - animal; assay: microbe, parasite or virus in culture; conditions: clinical isolate - animal
Method in brief: as §5

[6] = system: Pseudomonas aeruginosa ATCC 27853; assay: microbe, parasite or virus in culture; conditions: ATCC 27853; read-out: MIC P. aeruginosa ATCC
Method in brief: as §5

[7] = system: Staphylococcus aureus ATCC 29213; assay: microbe, parasite or virus in culture; conditions: ATCC 29213
Method in brief: as §5

[8] = system: Escherichia coli ATCC 25922; assay: microbe, parasite or virus in culture; conditions: ATCC 25922
Method in brief: as §5

[9] = system: Staphylococcus aureus clinical isolate - animal; assay: microbe, parasite or virus in culture; conditions: clinical isolate - animal
Method in brief: as §5

[10] = system: Candida albicans Clinical isolate - human; assay: microbe, parasite or virus in culture; conditions: Clinical isolate - human
Method in brief: as §1

Candida krusei ATCC 6258 = assay: microbe, parasite or virus in culture; conditions: ATCC 6258
Method in brief: as §1

[11] = system: Streptococcus agalactiae Clinical isolate - animal; assay: microbe, parasite or virus in culture; conditions: clinical isolate - animal
Method in brief: as §1

[12] = system: Candida parapsilosis ATCC 22019; assay: microbe, parasite or virus in culture; conditions: ATCC 22019
Method in brief: as §1

[13] = system: Streptococcus agalactiae ATCC 12386; assay: microbe, parasite or virus in culture; conditions: ATCC 12386; read-out: MIC S. agalactiae ATCC
Method in brief: as §1

[14] = system: Streptococcus pneumoniae ATCC 49619; assay: microbe, parasite or virus in culture; conditions: ATCC 49619; read-out: MIC S. pneumoniae ATCC
Method in brief: as §1

[15] = system: three fungi (Candida krusei, Candida parapsilosis, Candida albicans); assay: Antifungal screening, summary over the panel of fungi (broth microdilution)
Method: as §2, §3, §4

[16] = synthesized mature peptide, antimicrobial screening Phase I, Y/N summary over fungi tested, broth microdilution
[17] = antimicrobial screening Phase I, Y/N summary over bacteria tested, broth microdilution

## CC[C@H](C)[C@H](NC(=O)[C@H](CCCNC(=N)N)NC(=O)[C@H](CC(=O)O)NC(=O)[C@H](Cc1c[nH]c2ccccc12)NC(=O)[C@@H](NC(=O)[C@H](CCCNC(=N)N)NC(=O)[C@H](CCCNC(=N)N)NC(=O)[C@@H](NC(=O)[C@H](CC(C)C)NC(=O)[C@H](CCCNC(=N)N)NC(=O)CNC(=O)[C@H](CC(C)C)NC(=O)[C@H](CCCNC(=N)N)NC(=O)CNC(=O)[C@H](CCCNC(=N)N)NC(=O)[C@@H](N)CCCCN)[C@@H](C)CC)[C@@H](C)CC)C(=O)N[C@@H](CCCNC(=N)N)C(=O)NCC(=O)NCC(=O)O [MyfaCath7] (H-KRGRLGRLIRRIWDRIRGG-OH)
[1]
  MBC MRSA: 3.4 µM (≈ 7.94 µg/mL)
  MIC MRSA: 3.4 µM (≈ 7.94 µg/mL)
[2]
  MBC PRSA: 1.7 µM (≈ 3.97 µg/mL)
  MIC PRSA: 1.7 µM (≈ 3.97 µg/mL)
[3]
  MIC against at least one strain: 4 µg/mL (≈ 1.71 µM)
[4]
  MBC P. aeruginosa: > 27.4 µM
[4]; read-out: MIC P. aeruginosa
  MIC: 13.7 µM (≈ 32 µg/mL)
[4]; read-out: MIC in the presence of cations P. aeruginosa
  MIC: 27.4 µM
[5]
  MBC E. coli: 1.7 (1.7)^1.7 µM
  MIC E. coli: 1.7 (1.7)^1.7 µM
  MIC in the presence of cations E. coli: 1.7 (1.7)^1.7 µM
[6]
  MIC: >27.4 µM
[7]
  MBC S. aureus ATCC: 3.4 (3.4)^3.4 µM
  MIC S. aureus ATCC: 3.4 (3.4)^3.4 µM
  MIC in the presence of cations S. aureus ATCC: 3.4 (3.4)^3.4 µM
[8]
  MBC E. coli ATCC: 1.7 µM (≈ 3.97 µg/mL)
[8]; read-out: MIC E. coli ATCC
  MIC: 1.7 µM (≈ 3.97 µg/mL)
[8]; read-out: MIC in the presence of cations E. coli ATCC
  MIC: 3.4 µM
[9]
  MBC S. aureus: 3.4 (3.4)^3.4 µM
  MIC S. aureus: 3.4 (3.4)^3.4 µM
  MIC in the presence of cations S. aureus: 3.4 (3.4)^3.4 µM
[10]
  MFC C. albicans: 27.4 µM (≈ 64 µg/mL)
  MIC C. albicans: 27.4 µM (≈ 64 µg/mL)
Candida krusei ATCC 6258
  MFC C. krusei ATCC: 6.8 µM (≈ 15.9 µg/mL)
  MIC C. krusei ATCC: 6.8 µM (≈ 15.9 µg/mL)
[11]
  MBC S. agalactiae: 13.7 µM (≈ 32 µg/mL)
  MIC S. agalactiae: 13.7 µM (≈ 32 µg/mL)
[12]
  MFC C. parapsilosis ATCC: 13.7 µM (≈ 32 µg/mL)
  MIC C. parapsilosis ATCC: 13.7 µM (≈ 32 µg/mL)
[13]
  MIC: >27.4 µM
[14]
  MIC: >27.4 µM

## SRGLRKKLKKLGKSIKKRLKNIKIGYSIPFPG [PspeCath1p]
[15]; Y/N summary over the fungi screened, broth microdilution, NT = not tested
  Antifungal (MIC <64ug/mL): Y (Antifungal (MIC <64ug/mL))

## PGKRRGKLIKKGGKGVKRLLPKNGIIILPPG [MAP5, marsupial ancestral peptide, predicted by ANCESCON and GASP, synthesized]
[15]; [16]
  Antifungal (MIC <64ug/mL): N (Antifungal (MIC <64ug/mL))
[3]; [17]
  Antibacterial (MIC <64ug/mL): N (Antibacterial (MIC <64ug/mL))

## KVKRGLWEDLKRKATKFGDDIRNTLRNVKIKFPVPHLG [MagiCath9]
[15]; broth microdilution screening, phase I, Y/N summary over the fungi tested, synthesized mature peptide
  Antifungal (MIC <64ug/mL): N (Antifungal (MIC <64ug/mL))
[3]; broth microdilution screening, phase I or II, Y/N summary over the bacteria tested
  Antibacterial (MIC <64ug/mL): N (Antibacterial (MIC <64ug/mL))

## KRFGFRWFIRTLLRFRGEKVKTRFIFAIEKLIDT [MAP12, marsupial ancestral peptide, predicted by ANCESCON and GASP, synthesized]
[15]; [16]
  Antifungal (MIC <64ug/mL): N (Antifungal (MIC <64ug/mL))
[3]; [17]
  Antibacterial (MIC <64ug/mL): N (Antibacterial (MIC <64ug/mL))
